Laboratory results as given in patent US20090004145A1, “COMPOSITIONS AND METHODS INVOLVING GENE THERAPY AND PROTEASOME MODULATION” (priority 2006, published 2009).
Where a SMILES comes first, the peptide text is derived from it. The star is where a group is joined. Cbz = O=C(OCc1ccccc1)*

Key:
Type in all cases: cell-based, human
[1] = tested on: MDA-7 protein in 2008 cells; assay: Western blotting of MDA-7 protein expression; conditions: 48 h, vs Ad-mda7 alone
Procedure: FIG. 11. Inhibition of the proteasomal activity by MG132 results in increased ubiquitinated MDA-7 protein expression in CDDP-sensitive tumor cells but not in CDDP-resistant tumor cells. FIG. 11A, CDDP-resistant (2008/C*13 R) and sensitive (2008) ovarian tumor cells were plated in six-well plates and were treated with PBS, MG132, Ad-mda7, or Ad-mda7 plus MG132. At 48 h after treatment cells were harvested, lysates and supernatants prepared and subjected to MDA-7 and total ubiquitinated protein detection by western blotting and proteasome activity assay using commercially available kit. […] However, the MDA-7 protein was increased in 2008 cells when treated with MG132 plus Ad-mda7. […] FIG. 11B, CDDP-resistant (2008/C*13 R) and sensitive (2008) ovarian tumor cells were plated in six-well plates and were treated with PBS, MG132, Ad-p53, or Ad-p53 plus MG132. At 48 h after treatment cells were harvested, lysates and supernatants prepared and subjected to p53 protein detection by western blotting and proteasome activity using commercially available kit. […] However, the p53 protein was increased in 2008 cells when treated with MG132 plus Ad-p53.
FIG. 18. […] CDDP-sensitive (2008) ovarian tumor cells were plated in six-well plates. […]
FIG. 21. […] MDA-7 protein was detected in cells that were treated with Ad-mda7. […]

[2] = tested on: p53, pJNK, p38MAPK, p44/42MAPK in 2008 cells; assay: Western blotting of endogenous ubiquitinated proteins; conditions: 24 h
Procedure: FIG. 16. Expression of endogenous ubiquitinated proteins is increased in MG132-treated CDDP-sensitive tumor cells but not in CDDP-resistant tumor cells. CDDP-resistant (2008/C*13 R) and sensitive (2008) ovarian tumor cells were plated in six-well plates. At 24 h after plating cells were treated with PBS or MG132. At 24 h after treatment cells were harvested, lysates prepared and subjected to western blotting. Primary antibodies used were anti-human p53, anti-human pJNK, antihuman-p38MAPK and anti-human p44/42MAPK antibody. […] Beta-actin was used as internal loading control.
FIG. 19. SiRNA-mediated inhibition of Beta-5 subunit expression of the 20S proteasome in CDDP-sensitive tumor cells results in increased endogenous protein expression. CDDP-sensitive (2008) ovarian tumor cells were plated in six-well plates. At 24 h after plating cells were treated with PBS, control SiRNA, or beta-5 specific SiRNAs (100 nM). At 48 h after treatment cells were harvested, lysates prepared and subjected to western blotting. Primary antibodies used were anti-human beta-5 antibody, anti-human p53 antibody and anti-human pJNK antibody. […] Beta-actin was used as internal loading control.
Expression of Endogenous Ubiquitinated Proteins is Increased in MG132-Treated CDDP-Sensitive Tumor Cells but not in CDDP-Resistant Tumor Cells. […]

[3] = tested on: proteasome activity in 2008/C*13 R cells; assay: Proteasome activity assay (commercially available kit) on cell lysates; conditions: 48 h

SMILES: CC(C)C[C@@H](C=O)NC(=O)[C@H](CC(C)C)NC(=O)[C@H](CC(C)C)NC(=O)OCc1ccccc1 [MG132] (Cbz-Leu-Leu-Leu-aldehyde)
- MDA-7 protein expression with proteasome inhibitor [1]: significantly increased
- expression of p53, pJNK, p38MAPK, p44/42MAPK [2]: increased expression
- inhibition of proteasome activity ([3]; FIG. 11A (Ad-mda7 experiment)): 20%
- inhibition of proteasome activity ([3]; FIG. 11B (Ad-p53 experiment)): 20%
